Assay results as given in ChEMBL document CHEMBL5034038, “Zanamivir-Cholesterol Conjugate: A Long-Acting Neuraminidase Inhibitor with Potent Efficacy against Drug-Resistant Influenza Viruses” (J Med Chem, 2021).
The source made the active and inactive calls. No cut-off for these calls is given here.

Key:
Influenza A virus [1] = assay: Antiviral activity against Influenza A virus (A/California/07/2009 (H1NI)) harboring NA H275Y mutant infected in dog MDCK cells assessed as reduction in virus replication incubated for 72 hrs by CCK8 assay; format: functional, organism-based, A/California/07/2009(H1N1)
[2] = Inhibition of Influenza A virus (A/California/07/2009 (H1N1)) neuraminidase N1 H275Y mutant using MUNANA as substrate preincubated for 30 mins followed by substrate addition by fluorescence method
[3] = Inhibition of Influenza A virus (A/Moscow/10/99 (H3N2)) neuraminidase N2 E119V variant using MUNANA as substrate preincubated for 30 mins followed by substrate addition by fluorescence method
Influenza A virus [4] = assay: Antiviral activity against Influenza A virus (A/Moscow/10/99 (H3N2)) harboring NA E119V mutant infected in dog MDCK cells assessed as reduction in virus replication incubated for 72 hrs by CCK8 assay; format: functional, organism-based
Influenza A virus [5] = assay: Protection against Influenza A virus (A/California/07/2009 (H1NI)) harboring NA H275Y mutant infected in Balb/c mouse at 4.2 to 8.4 uM/kg, IV administered once daily for 7 days starting from 24 hrs prior to viral infection; format: functional, A/California/07/2009(H1N1); conditions: dose 4.2-8.4 µM/Kg
Influenza A virus [6] = assay: Protection against Influenza A virus (A/California/07/2009 (H1NI)) harboring NA H275Y mutant infected in Balb/c mouse at 8.4 uM/kg, IV administered once daily for 7 days starting from 24 hrs post to viral infection; format: functional, A/Puerto Rico/8/1934(H1N1)

| SMILES | EC50 (Influenza A virus [1]) [µM] | IC50 [2] [µM] | IC50 [3] [µM] | EC50 (Influenza A virus [4]) [µM] | EC50 (Influenza A virus [4]; read-out: EC50) [µM] | Activity (Influenza A virus [5]; time 7 day, at 4.2 to 8.4 µmol/kg) [%] | Activity (Influenza A virus [6]; time 7 day, at 8.4 µmol/kg) [%] | Activity (Influenza A virus [5]; A/California/07/2009(H1N1), time 7.0 day) | Activity (Influenza A virus [6]; A/Puerto Rico/8/1934(H1N1), time 7.0 day) |
| --- | --- | --- | --- | --- | --- | --- | --- | --- | --- |
| CC(=O)N[C@H]1[C@H]([C@H](O)[C@H](O)CO)OC(C(=O)O)=C[C@@H]1NC(=N)N [ZANAMIVIR] | 0.0266 | 0.001 | 0.01 | 5.24 |  |  |  |  |  |
| CC(=O)N[C@H]1[C@H]([C@H](OC(=O)NCCOCCOCCOCCOCCOCCOCCOCCOCCOCCOCCOCCOCc2cn(CCCCCCO[C@H]3CC[C@@]4(C)C(=CC[C@H]5[C@@H]6CC[C@H]([C@H](C)CCCC(C)C)[C@@]6(C)CC[C@@H]54)C3)nn2)[C@H](O)CO)OC(C(=O)O)=C[C@@H]1NC(=N)N | 2.6 | 0.573 | 8.58 |  | 8.26 |  |  |  |  |
| CC(=O)N[C@H]1[C@H]([C@H](OC(=O)NCCOCCOCCOCc2cn(CCCCCCO[C@H]3CC[C@@]4(C)C(=CC[C@H]5[C@@H]6CC[C@H]([C@H](C)CCCC(C)C)[C@@]6(C)CC[C@@H]54)C3)nn2)[C@H](O)CO)OC(C(=O)O)=C[C@@H]1NC(=N)N | 0.653 | 0.127 | 0.773 |  | 4.81 |  |  |  |  |
| CCCCCCn1cc(COCCOCCOCCOCCOCCOCCNC(=O)O[C@@H]([C@@H]2OC(C(=O)O)=C[C@H](NC(=N)N)[C@H]2NC(C)=O)[C@H](O)CO)nn1 | 0.612 | 0.0303 | 0.296 |  | 4.73 |  |  |  |  |
| CC(=O)N[C@H]1[C@H]([C@H](OC(=O)NCCOCCOCCOCCOCCOCCOCc2cn(CCCCCCO[C@H]3CC[C@@]4(C)C(=CC[C@H]5[C@@H]6CC[C@H]([C@H](C)CCCC(C)C)[C@@]6(C)CC[C@@H]54)C3)nn2)[C@H](O)CO)OC(C(=O)O)=C[C@@H]1NC(=N)N | 0.022 | 0.022 | 0.162 |  | 0.422 | 100 | 100 |  |  |
| CCC(CC)O[C@@H]1C=C(C(=O)O)C[C@H](N)[C@H]1NC(C)=O [OSELTAMIVIR CARBOXYLATE] | 2.61 | 0.938 | 0.0224 |  | 30.2 |  |  | inactive | inactive |
